Data as given in patent US4232148A, “6-Deoxyneamines” (The Upjohn Company, priority 1979, dated 1980).
Converted amounts (≈) assume the structure as drawn. Like-named read-outs stand apart in the source and are kept apart here.

What was measured:
Assay type in all cases: cell-based
S. faecalis UC 694 = test: standard microplate test in BHI Agar, MIC; details: Enterococcus faecalis, UC694, 20 h
Experimental: (§1) The compounds VII, XI, XVβ, XVα and XVI were tested in a standard microplate test in BHI (Brain Heart Infusion) Agar at a concentration of 1 mg./ml. and dilutions thereof at 37° incubation temperature. The end points are read at 20 hours. BHI Agar is supplied by Difco Laboratories, Detroit, Mich., U.S.A. and has the following compositions:
(§2) Calf brains, infusion from: 200 gm.
(§3) Beef heart, infusion from: 250 gm.
(§4) Bacto Proteose-peptone, Difco: 10 gm.
(§5) Bacto-Dextrose, Difco: 1 gm.
(§6) Disodium phosphate: 2.5 gm.

K. pneumoniae UC 58 = test: standard microplate test in BHI Agar, MIC; details: Klebsiella pneumoniae, UC58, 20 h
Experimental: as §1, §2, §3, §4, §5, §6

E. coli UC 311 = test: standard microplate test in BHI Agar, MIC; details: Escherichia coli, UC311, 20 h, read-out: Minimal Inhibitory Concentration
Experimental: as §1, §2, §3, §4, §5, §6

S. flexneri UC 143 = test: standard microplate test in BHI Agar, MIC; details: Shigella flexneri, UC143, 37°, 20 hours
Experimental: as §1, §2, §3, §4, §5, §6

S. marcescens UC 131 = test: standard microplate test in BHI Agar, MIC; details: Serratia marcescens, UC131, 37°, 20 hours
Experimental: as §1, §2, §3, §4, §5, §6

S. schottmuelleri UC 126 = test: standard microplate test in BHI Agar, MIC; details: 37°, 20 hours
Experimental: as §1, §2, §3, §4, §5, §6

P. morganii UC 3186 = test: standard microplate test in BHI Agar, MIC; details: Morganella morganii, UC3186, 20 h
Experimental: as §1, §2, §3, §4, §5, §6

P. mirabilis UC 6671 = test: standard microplate test in BHI Agar, MIC; details: Proteus mirabilis, UC6671, 37°, 20 hours
Experimental: as §1, §2, §3, §4, §5, §6

D. pneumoniae UC 41 = test: standard microplate test in BHI Agar, MIC; details: Streptococcus pneumoniae, UC41, 37°, 20 hours, read-out: Minimal Inhibitory Concentration
Experimental: as §1, §2, §3, §4, §5, §6

E. coli UC 45 = test: standard microplate test in BHI Agar, MIC; details: Escherichia coli, UC45, 37°, 20 hours, read-out: Minimum Inhibitory Concentration
Experimental: as §1, §2, §3, §4, §5, §6

Ps. aeruginosa UC 95 [1] = test: standard microplate test in BHI Agar, MIC; details: Pseudomonas aeruginosa, UC95, 20 h
Experimental: as §1, §2, §3, §4, §5, §6

S. typhi UC 215 = test: standard microplate test in BHI Agar, MIC; details: Salmonella enterica, BHI Agar, 37°, 20 hours
Experimental: as §1, §2, §3, §4, §5, §6

P. vulgaris UC 93 [2] = test: standard microplate test in BHI Agar, MIC; details: Proteus vulgaris, UC93, 37°, 20 hours
Experimental: as §1, §2, §3, §4, §5, §6

S. pyogenes UC 152 = test: standard microplate test in BHI Agar, MIC; details: Streptococcus pyogenes, UC152, 20 h
Experimental: as §1, §2, §3, §4, §5, §6

S. pneumoniae I UC 41 = test: standard microplate test in BHI Agar, MIC; details: Streptococcus pneumoniae, UC41, 37°, 20 hours, read-out: Minimum Inhibitory Concentration
Experimental: as §1, §2, §3, §4, §5, §6

S. aureus UC 76 = test: standard microplate test in BHI Agar, MIC; details: Staphylococcus aureus, UC76, 20 h
Experimental: as §1, §2, §3, §4, §5, §6

B. subtilis UC 564 = test: standard disc plate assay, zone of inhibition; details: 12.5 mm paper discs
Text: (§7) The compounds of formulas (V, VII, IX, XI, XIV, XVI, and XIX) are active as antibacterials and can be used in various environments to erradicate or control susceptible microorganisms. Tables I and II set forth the in vitro antibacterial test results for representative compounds of the present invention. The results were obtained with a standard disc plate assay using 12.5 mm paper discs.

K. pneumoniae UC 57 = test: standard disc plate assay, zone of inhibition; details: 12.5 mm paper discs
Text: as §7

S. lutea UC 130 = test: standard disc plate assay, zone of inhibition; details: Micrococcus luteus, UC130, read-out: Zones of Inhibition
Text: as §7

S. schottmeulleri UC 126 = test: standard disc plate assay, zone of inhibition; details: 12.5 mm paper discs
Text: as §7

S. aureus UC 80 = test: standard disc plate assay, zone of inhibition; details: 12.5 mm paper discs
Text: as §7

B. cereus UC 3145 = test: standard disc plate assay, zone of inhibition; details: 12.5 mm paper discs
Text: as §7

Ps. aeruginosa UC 95 [3] = test: standard disc plate assay, zone of inhibition; details: 12.5 mm paper discs
Text: as §7

S. gallinarum UC 265 = test: standard disc plate assay, zone of inhibition; details: Salmonella enterica, read-out: Zones of Inhibition
Text: as §7

P. vulgaris UC 93 [4] = test: standard disc plate assay, zone of inhibition; details: 12.5 mm paper discs
Text: as §7

E. coli UC 51 = test: standard disc plate assay, zone of inhibition; details: 12.5 mm paper discs
Text: as §7

[5] = read-out: Minimal Inhibitory Concentration
[6] = read-out: Minimum Inhibitory Concentration

In the case of NC[C@H]1O[C@H](O[C@H]2[C@H](O)[C@@H](O)[C@H](N)C[C@@H]2N)[C@H](N)[C@@H](O)[C@@H]1O [Neamine], the MIC (S. faecalis UC 694; [5]) is reported as > 500 µg/mL, the MIC (S. faecalis UC 694; [6]) is reported as > 500 µg/mL and the MIC (K. pneumoniae UC 58; [5]) is reported as 7.8 µg/mL (≈ 24.2 µM). It also gave an MIC (K. pneumoniae UC 58; [6]) of 15.6 µg/mL (≈ 48.4 µM), an MIC (E. coli UC 311) of 125 µg/mL (≈ 388 µM) and an MIC (S. flexneri UC 143; [5]) of 125 µg/mL (≈ 388 µM). It also gave an MIC (S. flexneri UC 143; [6]) of 62.5 µg/mL (≈ 194 µM), an MIC (S. marcescens UC 131; [5]) of 250 µg/mL (≈ 776 µM) and an MIC (S. marcescens UC 131; [6]) of 250 µg/mL (≈ 776 µM). For the same molecule, the MIC (S. schottmuelleri UC 126; [5]) was 15.6 µg/mL (≈ 48.4 µM), the MIC (S. schottmuelleri UC 126; [6]) was 31.2 µg/mL (≈ 96.8 µM) and the MIC (P. morganii UC 3186; [5]) was 31.2 µg/mL (≈ 96.8 µM). It also gave an MIC (P. morganii UC 3186; [6]) of 62.5 µg/mL (≈ 194 µM), an MIC (P. mirabilis UC 6671; [5]) of 250 µg/mL (≈ 776 µM) and an MIC (P. mirabilis UC 6671; [6]) of 62.5 µg/mL (≈ 194 µM). The MIC (D. pneumoniae UC 41) was 62.5 µg/mL (≈ 194 µM), the MIC (E. coli UC 45) was 62.5 µg/mL (≈ 194 µM) and the MIC (Ps. aeruginosa UC 95 [1]; [5]) was > 500 µg/mL. The MIC (Ps. aeruginosa UC 95 [1]; [6]) was > 500 µg/mL, the MIC (S. typhi UC 215; [5]) was 31.2 µg/mL (≈ 96.8 µM) and the MIC (S. typhi UC 215; [6]) was 15.6 µg/mL (≈ 48.4 µM). The MIC (P. vulgaris UC 93 [2]; [5]) was 62.5 µg/mL (≈ 194 µM), the MIC (P. vulgaris UC 93 [2]; [6]) was 62.5 µg/mL (≈ 194 µM) and the MIC (S. pyogenes UC 152; [5]) was 7.8 µg/mL (≈ 24.2 µM). It also gave an MIC (S. pyogenes UC 152; [6]) of 7.8 µg/mL (≈ 24.2 µM), an MIC (S. pneumoniae I UC 41) of 62.5 µg/mL (≈ 194 µM) and an MIC (S. aureus UC 76; [5]) of 7.8 µg/mL (≈ 24.2 µM). The MIC (S. aureus UC 76; [6]) was 3.9 µg/mL (≈ 12.1 µM), the “Zones of Inhibition” value (B. subtilis UC 564; 0.1 mg/ml) was 28 mm and the “Zones of Inhibition” value (B. subtilis UC 564; 1 mg/ml) was 37 mm. For the same molecule, the zone of inhibition at 100 µg/mL (B. subtilis UC 564; Bacillus subtilis, UC564, read-out: Zones of Inhibition, 0.1 mg/ml) was 30 mm, the zone of inhibition at 1000 µg/mL (B. subtilis UC 564; Bacillus subtilis, UC564, read-out: Zones of Inhibition, 1 mg/ml) was 39 mm and the “Zones of Inhibition” value (K. pneumoniae UC 57; 0.1 mg/ml) was 26 mm. For the same molecule, the “Zones of Inhibition” value (K. pneumoniae UC 57; 1 mg/ml) was 32 mm, the zone of inhibition at 100 µg/mL (K. pneumoniae UC 57; Klebsiella pneumoniae, UC57, read-out: Zones of Inhibition, 0.1 mg/ml) was 27 mm and the zone of inhibition at 1000 µg/mL (K. pneumoniae UC 57; Klebsiella pneumoniae, UC57, read-out: Zones of Inhibition, 1 mg/ml) was 34 mm. The zone of inhibition at 1000 µg/mL (S. lutea UC 130) was 17 mm, the “Zones of Inhibition” value (S. schottmeulleri UC 126; 0.1 mg/ml) was 15 mm and the zone of inhibition at 100 µg/mL (S. schottmeulleri UC 126; 0.1 mg/ml, read-out: Zones of Inhibition) was 16 mm. The “Zones of Inhibition” value (S. schottmeulleri UC 126; 1 mg/ml) was 23 mm, the zone of inhibition at 1000 µg/mL (S. schottmeulleri UC 126; 1 mg/ml, read-out: Zones of Inhibition) was 24 mm and the “Zones of Inhibition” value (S. aureus UC 80; 0.1 mg/ml) was 18 mm. The “Zones of Inhibition” value (S. aureus UC 80; 1 mg/ml) was 26 mm, the zone of inhibition at 100 µg/mL (S. aureus UC 80; Staphylococcus aureus, UC80, read-out: Zones of Inhibition, 0.1 mg/ml) was 20 mm and the zone of inhibition at 1000 µg/mL (S. aureus UC 80; Staphylococcus aureus, UC80, read-out: Zones of Inhibition, 1 mg/ml) was 29 mm. For the same molecule, the “Zones of Inhibition” value (B. cereus UC 3145; 1 mg/ml) was 23 mm, the zone of inhibition at 100 µg/mL (B. cereus UC 3145; Bacillus cereus, UC3145, read-out: Zones of Inhibition, 0.1 mg/ml) was 15 mm and the zone of inhibition at 1000 µg/mL (B. cereus UC 3145; Bacillus cereus, UC3145, read-out: Zones of Inhibition, 1 mg/ml) was 24 mm. For the same molecule, the “Zones of Inhibition” value (Ps. aeruginosa UC 95 [3]; 1 mg/ml) was 18 mm, the zone of inhibition at 1000 µg/mL (Ps. aeruginosa UC 95 [3]; Pseudomonas aeruginosa, UC95, read-out: Zones of Inhibition, 1 mg/ml) was 17 mm and the zone of inhibition at 100 µg/mL (S. gallinarum UC 265) was 19 mm. The zone of inhibition at 1000 µg/mL (S. gallinarum UC 265) was 29 mm, the “Zones of Inhibition” value (P. vulgaris UC 93 [4]; 0.1 mg/ml) was 15 mm and the “Zones of Inhibition” value (P. vulgaris UC 93 [4]; 1 mg/ml) was 28 mm. The zone of inhibition at 100 µg/mL (P. vulgaris UC 93 [4]; Proteus vulgaris, UC93, read-out: Zones of Inhibition, 0.1 mg/ml) was 18 mm, the zone of inhibition at 1000 µg/mL (P. vulgaris UC 93 [4]; Proteus vulgaris, UC93, read-out: Zones of Inhibition, 1 mg/ml) was 27 mm and the “Zones of Inhibition” value (E. coli UC 51; 0.1 mg/ml) was 18 mm. The “Zones of Inhibition” value (E. coli UC 51; 1 mg/ml) was 25 mm, the zone of inhibition at 100 µg/mL (E. coli UC 51; Escherichia coli, UC51, read-out: Zones of Inhibition, 0.1 mg/ml) was 19 mm and the zone of inhibition at 1000 µg/mL (E. coli UC 51; Escherichia coli, UC51, read-out: Zones of Inhibition, 1 mg/ml) was 27 mm.
